Consider 12 molecules from patent publication US10098949B2, “Adsorption of immunopotentiators to insoluble metal salts” (GlaxoSmithKline Biologicals SA, priority 2010, dated 2018).

The structures appear in SMILES notation. Like-named read-outs stand apart in the source and are kept apart here. Bounds are passed on as bounds.

Series [1] can be described thus: Adsorption to aluminium hydroxide (Al—H) adjuvant, supernatant by HPLC. The note with it: for % adsorption to Al—H: 10 mM histidine buffer, pH 6.5; for Adsorption Efficiency to aluminum hydroxide: 3 mg/mL aluminum hydroxide, 0.5 mg/mL compound, no buffer, room temperature overnight, RP-HPLC. The series is classed as physicochemical.
A short description of series [2]: Solubility in water and in histidine buffer. In kind it is physicochemical. The following applies: pH 6.8.
In the next series the target is T1, human TLR7 (Homo sapiens, UniProt Q9NYK1).
T1 construct: expressed in transfected cells; host or cells: HEK293
T1 sequence (Q9NYK1 27-1049): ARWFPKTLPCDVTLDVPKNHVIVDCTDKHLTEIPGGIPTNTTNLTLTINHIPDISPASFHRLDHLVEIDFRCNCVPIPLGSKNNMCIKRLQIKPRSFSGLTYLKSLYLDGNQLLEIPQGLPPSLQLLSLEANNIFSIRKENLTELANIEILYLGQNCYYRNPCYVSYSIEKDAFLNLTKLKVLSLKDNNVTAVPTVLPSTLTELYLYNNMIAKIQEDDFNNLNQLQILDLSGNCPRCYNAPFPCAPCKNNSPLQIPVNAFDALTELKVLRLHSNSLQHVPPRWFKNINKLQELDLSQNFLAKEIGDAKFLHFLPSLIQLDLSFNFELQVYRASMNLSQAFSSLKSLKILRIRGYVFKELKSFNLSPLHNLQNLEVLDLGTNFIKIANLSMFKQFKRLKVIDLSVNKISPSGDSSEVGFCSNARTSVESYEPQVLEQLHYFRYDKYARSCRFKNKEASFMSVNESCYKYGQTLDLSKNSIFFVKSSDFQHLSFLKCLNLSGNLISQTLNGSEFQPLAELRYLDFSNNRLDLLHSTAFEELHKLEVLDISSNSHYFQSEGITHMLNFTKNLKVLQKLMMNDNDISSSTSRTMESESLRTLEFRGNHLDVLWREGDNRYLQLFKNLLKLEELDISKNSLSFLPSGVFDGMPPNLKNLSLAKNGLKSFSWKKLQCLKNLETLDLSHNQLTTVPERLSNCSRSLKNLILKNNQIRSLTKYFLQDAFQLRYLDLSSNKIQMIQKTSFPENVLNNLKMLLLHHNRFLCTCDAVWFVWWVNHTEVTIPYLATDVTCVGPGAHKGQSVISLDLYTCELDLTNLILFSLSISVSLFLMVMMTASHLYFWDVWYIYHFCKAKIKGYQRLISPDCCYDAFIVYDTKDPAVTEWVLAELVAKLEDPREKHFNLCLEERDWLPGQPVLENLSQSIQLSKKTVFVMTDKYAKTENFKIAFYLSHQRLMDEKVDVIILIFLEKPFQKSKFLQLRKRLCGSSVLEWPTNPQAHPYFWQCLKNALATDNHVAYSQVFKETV
Briefly: HEK293 human TLR7 NF-κB luciferase reporter assay. In kind it is cell-based. The note with it: HEK293 cells. As to the method:
The activity of this compound is assessed in an assay using HEK293 cells which are stably transfected with human TLR7 and an NF-κB-driven luciferase reporter vector (pNifty-Luciferase). As a control assay, normal HEK293 transfected with pNifty-Luc are used. Cells are cultured in DMEM supplemented with 2 mM L-glutamine, 10% heart inactivated FBS, 1% penicillin and streptomycin, 2 μg/ml puromycin and 5 μg/ml of blasticidin. Bright-Glo™ Luciferase assay buffer and substrate are supplied by Promega. Cells are plated at 25,000 cells/well in 384-well plates in a final volume of 50 μl of media. Cells are allowed to adhere to the plates after overnight (18 hours) culture at 37° C. and 5% CO2. Serially-diluted experimental and positive control compounds are then dispensed to each well and incubated for 7 hours at 37° C. and 5% CO2. Cells stimulated with DMSO alone serve as negative controls. After the incubation, 30 μl of the pre-mix assay buffer and substrate buffer are added to each well according to manufacturer's instructions. The luminescence signal is read on a CLIPR machine with an integration time of 20 seconds per plate.
(A reporter such as luciferase makes a cellular process visible.)

Another series relates to splenocytes. Briefly: Activity in splenocytes. The series is classed as cell-based.
Another series deals with human PBMCs. Description: Activity in human PBMCs. In kind it is cell-based.
For the next series, the system named is serum cytokines. The following applies: in vivo.
The nature of series [3]: Muscle levels 24 hours after intramuscular injection. The series is classed as in vivo, Balb/C mice. The note with it: for level of compound in muscle: 24 hours after i.m. injection.
The subject of series [4] is serogroup B meningococcus. The series is classed as in vivo.
The nature of series [5]: Model of in vivo desorption from Al—H. In kind it is in vitro ADME. The following applies: 37° C., after 5 hours.
Series [6] can be described thus: Association with Al—H particles by confocal microscopy and flow cytometry. In kind it is physicochemical. The following applies: confocal microscopy (compound 1) or flow cytometry (compounds 2, O). For orientation: A flow cytometer gives signals particle by particle.
Where [7] appears, read: SIF (simulated interstitial fluid).
[8] abbreviates: 5CVMB, CD-1 mice, days 0 & 14, (b) the agonist compound.

As usually defined, the EC50 is the concentration that produces a half-maximal response. With `CCOCc1nc2c(N)nc3ccccc3c2n1CCOCCOCCOCCP(=O)(O)O` [Compound 68, (2-(2-(2-(2-(4-amino-2-(ethoxymethyl)-1H-imidazo[4,5-c]quinolin-1-yl)ethoxy)ethoxy)ethoxy)ethyl)phosphonic Acid], in series [1], the “% adsorption to Al—H” value was 94%. Further, the “solubility in histidine buffer” value in series [2] is listed as “soluble”. For the same molecule, the “activity compared to resiquimod (set to 100%)” value (shortened to “activity … (set to 100%)”) on human TLR7 is given as 75%. Further, the EC50 entry in the series with splenocytes and in the series on human PBMCs was “inactive” in each case. In addition, the “systemic cytokines, effect of adsorption to Al—H” value (“systemic cytokines, effect” below) in the series on serum cytokines is “generally reduced or unaffected”. Besides, the results for the “level of compound in muscle” value in series [3] (+Al—H) and in [3] (without Al—H (free form)) were “readily detected” and “undetectable”, respectively. In addition, the “SBA titer at day 28” value in series [4] (in vivo) turned out to be 404.

`CCCCCNc1nc(N)nc(C)c1Cc1ccc(CP(=O)(O)O)cc1` [Compound 69]: the “solubility in histidine buffer” value in series [2] is “insoluble”. The “activity … (set to 100%)” value on human TLR7 worked out at 36%. In addition, the EC50 result with splenocytes and with human PBMCs was “inactive” in each case.

With `Cc1cc(OCCCC(F)(F)P(=O)(O)O)ccc1CCc1cnc2c(N)nc3cc(CCC(=O)O)ccc3c2c1` [Compound 3], the “compound in supernatant after mixing with aluminium hydroxide (HPLC)” value in [1] is recorded as “neither compound is observed in the supernatant”. For the same molecule, in [1], the “% adsorption to Al—H” value came to 96.2%. The “proportion desorbed from Al—H” value is listed as 5% in series [5] (His buff), 49% in series [5] (Plasma/His buff) and 100% in series [5] (setting [7]).

Take `COCCOc1nc(N)c2nc(O)n(Cc3ccc(CP(=O)(O)O)cc3)c2n1` [Compound 6, (4-((6-amino-2-(2-methoxyethoxy)-8-oxo-7H-purin-9(8H)-yl)methyl)benzyl)phosphonic Acid]: the “solubility in histidine buffer” value in [2] is given as “soluble”. Further, the “activity … (set to 100%)” value at human TLR7 is 93%; in the series with splenocytes it was 210%; with human PBMCs, 35%. The 50% effective concentration (EC50) in the series on splenocytes (Splenocyte, read-out: EC50) stood at 0.98 µM; with human PBMCs (PBMC, read-out: EC50) it was 1 µM. The “level of compound in muscle” value in series [3] (without Al—H (free form)) is given as “undetectable”. Also, the “compound in inguinal lymph nodes or liver” value in [3] (after 24 hours) is “could not be detected”. For the same molecule, the results for the “SBA titer at day 28” value in series [4] (setting [8]) and in [4] (in vivo) were 282 and 4016, respectively.

For `Cc1cc(OCCOCCOCCC(F)(F)P(=O)(O)O)ccc1CCc1cnc2c(N)nc3cc(CCC(=O)O)ccc3c2c1` [Compound 4], in [1], the “compound in supernatant after mixing with aluminium hydroxide (HPLC)” value was “neither compound is observed in the supernatant”. In series [1], the “% adsorption to Al—H” value stood at 96.0%. The figures for the “proportion desorbed from Al—H” value in series [5] (His buff), in series [5] (Plasma/His buff) and in series [5] (setting [7]) were 4%, 81% and 100%, respectively.

With `CCCCCNc1nc(N)nc(C)c1Cc1ccc(CP(=O)(O)O)cc1OC` [Compound 8], in [2], the “solubility in histidine buffer” value is listed as “insoluble”. For the same molecule, the “activity … (set to 100%)” value is 81% at human TLR7, 184% with splenocytes and 50% in the series with human PBMCs. Further, the EC50 in the series with splenocytes (Splenocyte, read-out: EC50) amounted to 3.1 µM; in the series with human PBMCs (PBMC, read-out: EC50) it was 10.4 µM.

As to `CCOCc1nc2c(N)nc3ccccc3c2n1CC(C)(C)O` [resiquimod, reference compound], in series [4] (5CVMB, CD-1 mice, days 0 & 14, (e) resiquimod+Al—H, positive control), the “SBA titer at day 28” value is on record as 1033.

For the molecule `CCOCc1nc2c(N)nc3ccccc3c2n1CCOCCP(=O)(O)O` [Compound 7], in series [2], the “solubility in histidine buffer” value is on record as “insoluble”. The “activity … (set to 100%)” value on human TLR7 is given as 55%. Besides, the EC50 result in the series with splenocytes and with human PBMCs was “inactive” throughout.

Consider `COCCOc1cc2c(nc(O)n2Cc2ccc(CP(=O)(O)O)cc2)c(N)n1` [Compound 67, (4-((4-amino-6-(2-methoxyethoxy)-2-oxo-2,3-dihydro-1H-imidazo[4,5-c]pyridin-1-yl)methyl)benzyl)phosphonic Acid], for which the “% adsorption to Al—H” value in [1] is given as 82%. Also, the “solubility in histidine buffer” value in series [2] is “soluble”. In addition, the figures for the “activity … (set to 100%)” value at human TLR7, in the series with splenocytes and with human PBMCs were 103%, 142% and 59%, respectively. Also, the concentration for a half-maximal effect (EC50) in the series with splenocytes (Splenocyte, read-out: EC50) was found to be 9.3 µM; in the series on human PBMCs (PBMC, read-out: EC50), 0.8 µM. Besides, the “systemic cytokines, effect” value with serum cytokines is reported as “generally reduced or unaffected”. In addition, the entries for the “level of compound in muscle” value in series [3] (+Al—H) and in series [3] (without Al—H (free form)) were “readily detected” and “undetectable”, respectively. For the same molecule, the “SBA titer at day 28” value came to 64 in series [4] (setting [8]) and 949 in [4] (in vivo).

For the molecule `Cc1ccc2c(c1)nc(N)c1ncc(CCc3ccc(OP(=O)(O)O)cc3C)cc12` [Compound 102], the “Adsorption Efficiency to aluminum hydroxide” value in series [1] is on record as 85.1%; in series [1] (listed as compound 102), greater than 80%.

As to `CCCCCNc1nc(N)nc(C)c1Cc1ccc(OCCOCCC(F)(F)P(=O)(O)O)cc1OC` [Compound 71, (3-(2-(4-((2-amino-4-methyl-6-(pentylamino)pyrimidin-5-yl)methyl)-3-methoxyphenoxy)ethoxy)-1,1-difluoropropyl)phosphonic Acid], the “% adsorption to Al—H” value in [1] is recorded as 85%. Also, the “solubility in histidine buffer” value in series [2] is “soluble”. In addition, the “activity … (set to 100%)” value at human TLR7 is reported as 53%; with splenocytes, 239%; with human PBMCs, 50%. The concentration giving a half-maximal response (EC50) in the series with splenocytes (Splenocyte, read-out: EC50) came out at 10.5 µM; in the series with human PBMCs (PBMC, read-out: EC50), 9.5 µM. Moreover, the “systemic cytokines, effect” value with serum cytokines is on record as “generally reduced or unaffected”. Moreover, the “level of compound in muscle” value is “readily detected” in series [3] (+Al—H) and “undetectable” in [3] (without Al—H (free form)). Also, the “SBA titer at day 28” value came to 65 in series [4] (setting [8]) and 1653 in series [4] (in vivo).

As for `Cc1ccc(CCc2cnc3c(N)nc4cc(C)ccc4c3c2)c(C)c1` [O, reference compound], the “% adsorption to Al—H” value in [1] is recorded as “fails to adsorb”. Besides, in series [6], the “association with Al—H particles” value was “seen as a separate population”.
